Key:
[1] = tested on: Lucilla Cuprina (Australian sheep blowfly); test: Activity in vitro against Lucilla cuprina (Australian sheep blowfly), Assay A; conditions: eggs on agar-based medium; for pest or weed control at 32 ppm: Lucilia cuprina, 96 h, 4 days at 28° C. and 60% relative humidity, read-out: efficacy (EC80)
Procedure: Activity in vitro against Lucilla Cuprina (Australian sheep blowfly)—Assay A
Freshly laid blowfly eggs are used to seed a suitably formatted microplate containing the test substances to be evaluated for antiparasitic activity. Each compound is tested by serial dilution in order to determine its minimum efficacy dose. The test compounds are embedded in an agar-based nutritive medium allowing the full development of the eggs into 3rd instar larvae. The incubation lasts for 4 days at 28° C. and 60% relative humidity. Egg-hatching and ensuing larval development are also recorded to identify a possible growth-regulating activity.

[2] = tested on: Rhipicephalus sanguineus (Dog Tick); test: Activity in vitro against Rhipicephalus sanguineus (dog tick), Assay A, contact test; conditions: adult ticks; for pest or weed control at 100 ppm: Rhipicephalus sanguineus, 168 h, 28° C. and 80% relative humidity for 7 days, read-out: efficacy (EC80)
Procedure: Activity In Vitro Against Rhipicephalus sanguineus (Dog Tick)—Assay A
A contact test is performed by pre-coating microplate with serial dilution of compound allowing evaluating anti-parasitic activity by contact against ticks. A mixed adult tick population is then distributed to each well of the plate and incubated at 28° C. and 80% relative humidity for 7 days, during which the effect of the test compound is monitored. Acaricidal activity is confirmed if and when adult ticks are dead.

[3] = tested on: Engorged Female Rhipicephalus microplus (Cattle Tick); test: Activity in vitro against engorged female Rhipicephalus microplus (cattle tick), contact test; conditions: 672 h, organophosphorous-resistant Ultimo strain, evaluation 28 days later on mortality, oviposition and hatched larvae, read-out: efficacy (EC80)
Procedure: Activity In Vitro Against Engorged Female Rhipicephalus microplus (Cattle Tick)
A contact test is performed by pre-coating 6-well microplates with serial dilution of the compound to be evaluated for anti-parasitic activity. 10 engorged female ticks of the organophosphorous-resistant Ultimo strain are distributed to each well in triplicates. Plates are then incubated at 28° C. and 80% relative humidity. Evaluation takes place 28 days later based on mortality, oviposition and hatched larvae. […] Activity In Vivo Against Rhipicephalus sanguineus Nymphs on Mongolian Gerbils (Meriones unguiculatus) (Spray Application)

[4] = tested on: Rhipicephalus sanguineus Nymphs; test: Activity in vivo against Rhipicephalus sanguineus nymphs on Mongolian gerbils; conditions: topical, 0 h, pour on application day 0, tick number reduction vs placebo, Abbott's formula, read-out: efficacy (EC90)
Procedure: On day 0, gerbils are treated with the test compound at a given dose by pour on application. On day +1 (+2), the animals are infested with nymphs of R. sanguineus. Ticks are left on the animals until full repletion. Seven days after infestation nymphs dropped off fully engorged are collected and counted. They are kept until molting to also evaluate growth regulating activity of the test compound. Efficacy in killing (and growth regulating) is expressed as a tick number (and molted tick number) reduction in comparison with a placebo treated group, using the Abbott's formula:
n=number of live ticks. T=treated group. Co=control/placebo group.

[5] = tested on: Lice (Polyplax serrata); test: Activity in vivo against lice (Polyplax serrata) in mice (topical); conditions: pour-on application, live lice on day +4 and +14, Henderson & Tilton formula, read-out: efficacy (EC90)
Procedure: Activity In Vivo Against Lice (Polyplax serrata) in Mice (Topical) Mice naturally infected with P. serrata are treated with the formulated test compound on day 0 by pour-on application. On day +4 and +14, efficacy is evaluated by counting the number of live lice under a binocular. Efficacy at the two time points is expressed as a comparison of lice numbers counted on the same mouse before treatment, using the Henderson & Tilton formula, taking also into account lice numbers found on mice treated with the empty formulation (placebo group): [formula] n=number of lice, T=treated group, Co=control/placebo group.

[6] = tested on: Ctenocephalides Felis (Cat Flea); test: Activity in vitro against Ctenocephalides felis (cat flea), Assay A; conditions: adult fleas fed on treated blood for 24 h; for pest or weed control at 100 ppm: Ctenocephalides felis, dead fleas counted, read-out: efficacy (EC80)
Procedure: Activity In Vitro Against Ctenocephalides Felis (Cat Flea)—Assay A
A mixed adult population of fleas is placed in a suitably formatted 96-well plate allowing fleas to access and feed on treated blood via an artificial feeding system. Fleas are fed on treated blood for 24 h, after which the compound effect is recorded. Insecticidal activity is determined on the basis of the number of dead fleas recovered from the feeding system.

Row | Compound | pest or weed control at 32 ppm [1] [%] | pest or weed control at 100 ppm [2] [%] | pest or weed control at 200 ppm [3] [%] | inhibition in vivo at 32 mg/kg [4] [%] | inhibition in vivo at 32 mg/kg [5] [%] | pest or weed control at 100 ppm [6] [%] | EC50 ([1]; 4 days at 28° C.) [ppm] | EC50 ([2]; 7 days) [ppm] | EC80 [6] [ppm]
1 | CC(c1ncnn1-c1ccccn1)N(CCC(F)(F)F)C(=O)c1cc(C(F)(F)F)cc(C(F)(F)F)c1 (stereo not drawn) [Example 12, N-[1-[2-(2-Pyridyl)-1,2,4-triazol-3-yl]ethyl]-3,5-bis(trifluoromethyl)-N-(3,3,3-trifluoropropyl)benzamide] | > 80 | > 80 | > 80 | > 90 | > 90 | – | – | – | –
2 | C#CCN(C(=O)c1cc(Cl)cc(C(F)(F)F)c1)C(C)c1ncnn1-c1ncccn1 (stereo not drawn) [Example 41, 3-Chloro-N-prop-2-ynyl-N-[1-(2-pyrimidin-2-yl-1,2,4-triazol-3-yl)ethyl]-5-(trifluoromethyl)benzamide] | > 80 | > 80 | > 80 | > 90 | > 90 | > 80 | 1 | 32 | –
3 | CC(c1ncnn1-c1ccccn1)N(CC1CC1)C(=O)c1cncc(C(F)(F)F)c1 (stereo not drawn) [Example 9, N-(Cyclopropylmethyl)-N-[1-[2-(2-pyridyl)-1,2,4-triazol-3-yl]ethyl]-5-(trifluoromethyl)pyridine-3-carboxamide] | > 80 | > 80 | > 80 | > 90 | – | > 80 | – | – | –
4 | CC(c1ncnn1-c1ccccn1)N(CCF)C(=O)c1cc(C(F)(F)F)cc(C(F)(F)F)c1 (stereo not drawn) [Example 11, N-(2-Fluoroethyl)-N-[1-[2-(2-pyridyl)-1,2,4-triazol-3-yl]ethyl]-3,5-bis(trifluoromethyl)benzamide] | > 80 | > 80 | > 80 | > 90 | > 90 | > 80 | – | – | –
5 | CC(c1ncnn1-c1ncccn1)N(CC1CC1)C(=O)c1cc(C(F)(F)F)cc(C(F)(F)F)c1 (stereo not drawn) [Example 48, N-(Cyclopropylmethyl)-N-[1-(2-pyrimidin-2-yl-1,2,4-triazol-3-yl)ethyl]-3,5-bis(trifluoromethyl)benzamide] | > 80 | > 80 | > 80 | > 90 | > 90 | > 80 | – | – | –
6 | CC(c1ncnn1-c1ncccn1)N(CC1CC1)C(=O)c1cc(Cl)cc(OC(F)(F)F)c1 (stereo not drawn) [Example 37, 3-chloro-N-(cyclopropylmethyl)-N-[1-(2-pyrimidin-2-yl-1,2,4-triazol-3-yl)ethyl]-5-(trifluoromethoxy)benzamide] | > 80 | > 80 | > 80 | > 90 | > 90 | > 80 | – | – | –
7 | CC(c1ncnn1-c1ccccn1)N(CC1CC1)C(=O)c1cc(Cl)cc(OC(F)(F)F)c1 (stereo not drawn) [Example 10, 3-Chloro-N-(cyclopropylmethyl)-N-[1-[2-(2-pyridyl)-1,2,4-triazol-3-yl]ethyl]-5-(trifluoromethoxy)benzamide] | > 80 | > 80 | > 80 | > 90 | > 90 | > 80 | – | – | –
8 | C[C@@H](c1ncnn1-c1ncccn1)N(CC1CC1)C(=O)c1cc(C(F)(F)F)cc(C(F)(F)F)c1 [Example 49, N-(Cyclopropylmethyl)-N-[(1S)-1-(2-pyrimidin-2-yl-1,2,4-triazol-3-yl)ethyl]-3,5-bis(trifluoromethyl)benzamide] | > 80 | > 80 | – | > 90 | > 90 | > 80 | – | – | –
9 | CC(c1ncnn1-c1ccccn1)N(CC#N)C(=O)c1cc(C(F)(F)F)cc(C(F)(F)F)c1 (stereo not drawn) [Example 14, N-(Cyanomethyl)-N-[1-[2-(2-pyridyl)-1,2,4-triazol-3-yl]ethyl]-3,5-bis(trifluoromethyl)benzamide] | > 80 | > 80 | > 80 | > 90 | – | > 80 | – | – | –
10 | C#CCN(C(=O)c1cc(C(F)(F)F)cc(C(F)(F)F)c1)C(C)c1ncnn1-c1ncccn1 (stereo not drawn) [Example 35, N-Prop-2-ynyl-N-[1-(2-pyrimidin-2-yl-1,2,4-triazol-3-yl)ethyl]-3,5-bis(trifluoromethyl)benzamide] | > 80 | > 80 | > 80 | > 90 | > 90 | > 80 | – | – | –
11 | CC(c1ncnn1-c1ncccn1)N(CC1CC1)C(=O)c1cncc(C(F)(F)F)c1 (stereo not drawn) [Example 28, N-(Cyclopropylmethyl)-N-[1-(2-pyrimidin-2-yl-1,2,4-triazol-3-yl)ethyl]-5-(trifluoromethyl)pyridine-3-carboxamide] | > 80 | > 80 | – | > 90 | > 90 | > 80 | – | – | –
12 | COc1cnc(-n2ncnc2C(C)N(CC2CC2)C(=O)c2cc(C(F)(F)F)cc(C(F)(F)F)c2)nc1 (stereo not drawn) [Example 39, N-(Cyclopropylmethyl)-N-[1-[2-(5-methoxypyrimidin-2-yl)-1,2,4-triazol-3-yl]ethyl]-3,5-bis(trifluoromethyl)benzamide] | > 80 | > 80 | > 80 | > 90 | > 90 | > 80 | – | – | –
13 | CC(c1ncnn1-c1ccccn1)N(CC1CC1)C(=O)c1cc(C(F)(F)F)cc(C(F)(F)F)c1 (stereo not drawn) [Example 1, N-(Cyclopropylmethyl)-N-[1-[2-(2-pyridyl)-1,24-triazol-3-yl]ethyl]-3,5-bis(trifluoromethyl)benzamide] | > 80 | > 80 | > 80 | > 90 | > 90 | > 80 | – | – | –
14 | C#CCN(C(=O)c1cc(Cl)cc(OC(F)(F)F)c1)C(C)c1ncnn1-c1ccccn1 (stereo not drawn) [Example 18, 3-Chloro-N-prop-2-ynyl-N-[1-[2-(2-pyridyl)-1,2,4-triazol-3-yl]ethyl]-5-(trifluoromethoxy)benzamide] | > 80 | – | > 80 | > 90 | > 90 | > 80 | – | – | 10
15 | CC(c1ncnn1-c1ccccn1)N(CC1CC1(F)F)C(=O)c1cc(C(F)(F)F)cc(C(F)(F)F)c1 (stereo not drawn) [Example 16, N-[(2,2-Difluorocyclopropyl)methyl]-N-[1-[2-(2-pyridyl)-1,2,4-triazol-3-yl]ethyl]-3,5-bis(trifluoromethyl)benzamide] | > 80 | – | > 80 | > 90 | > 90 | > 80 | – | – | –
16 | CCCN(C(=O)c1cc(Cl)cc(C(F)(F)F)c1)C(C)c1ncnn1-c1ccccn1 (stereo not drawn) [Example 8, 3-Chloro-N-propyl-N-[1-[2-(2-pyridyl)-1,2,4-triazol-3-yl]ethyl]-5-(trifluoromethyl)benzamide] | > 80 | – | > 80 | > 90 | – | > 80 | – | – | –
